Measurements from publication PMC2374394, “Relationships between hydrophobicity, reactivity, accumulation and peripheral nerve toxicity of a series of platinum drugs” (British Journal of Cancer, 2000).
“And” between values parts separate entries of the source, which are not always exact repeats. Equal values may be shown once. Read-outs that look alike come from different tables or passages of the source.

Legend:
female Wistar rats [1] = system: female Wistar rats
Method: Neurotoxicity was detected by measuring sensory nerve conduction velocity (SNCV) in Wistar rats treated twice per week at the maximum tolerated dose. […] Animals and treatment Age-matched inbred female Wistar rats were used. Animals were allowed to acclimatize for 2 weeks before the start of the experiment. The animals were 10 weeks old and weighed 210- 240 g at the start of experiment. Platinum compounds (except JM216) were dissolved in sterile 0.9% (w/v) NaCl (Baxter Healthcare, New Zealand) by vortex mixing and sonication at an injection volume of 10 ml kg-1 . The platinum compounds (except JM216) were given by intraperitoneal injection on a twice per week dosing schedule at intervals of 3-4 days and the treatment was repeated weekly for a total of 8 weeks. […] Animals were weighed twice a week and checked for signs of toxicity daily. Animals showing signs of distress were immediately and painlessly killed. Animals had continuous access to food and water. […] Hypnorm (fluanisone 10 mg ml-1 , fentanyl citrate 0.3 mg ml-1 , Jansen Pharmaceuticals, Sydney, Australia) diluted 1:1 with sterile water was given by intramuscular injection to provide light anaesthesia. Responses were evoked by stimu- lating the sciatic nerve at the sciatic notch and the tibial nerve at the ankle of the left hind limb using percutaneous needle elec- trodes.

plasma proteins [2] = system: plasma proteins
[3] = Hydrophobicity (log kw), reverse-phase HPLC coupled to ICP-MS; format: physicochemical; settings: HPLC C8 column, actual or projected mobile phase 100% water; determinants from independent experiments
female Wistar rats [4] = settings: cited from earlier work
patients = settings: cited from earlier work
[5] = Hydrophobicity (log P), octanol-saline shake-flask method; settings: n-octanol / 0.9% NaCl shake-flask, platinum by ICP-MS, mean (n = 5)
plasma proteins [6] = system: plasma proteins; design: method as in van der Vijgh and Klein, 1986; settings: ref van der Vijgh and Klein, 1986; cited from earlier work
[7] = rat plasma, 37C, initial half-life by one-phase exponential decay
[8] = female Wistar rats, twice per week dosing schedule at the MTD, same protocol (JM216 by oral gavage), previous results ref McKeage et al, 1994, Screnci et al, 1997
[9] = female Wistar rats, twice per week dosing schedule at the MTD, intraperitoneal

Compound: N.N.[Cl][Pt][Cl] [Cisplatin]
- Time to development of altered SNCV (female Wistar rats [1]; rat, in vivo, ip): 7.0 weeks

Compound: NC1CCCCC1N.[Cl-].[Cl-].[Cl-].[Cl-].[Pt+4] (stereo not drawn) [S,S-(DACH)PtCl4]
- t (h), half-life of binding to plasma proteins in vitro (plasma proteins [2]; [7]): 0.78 h
- Log kw [3]: 0.41
- Time to development of altered SNCV (female Wistar rats [4]; rat, in vivo, po): 7.0 weeks

Compound: NC1CCCCC1N.[Cl-].[Cl-].[Cl-].[Cl-].[Pt+4] (stereo not drawn) [R,R-(DACH)PtCl4]
- t (h), half-life of binding to plasma proteins in vitro (plasma proteins [2]; [7]): 0.97 h
- Log kw [3]: 0.40 and 0.42
- Time to development of altered SNCV (female Wistar rats [4]; rat, in vivo, po): 4.0 weeks

Compound: NC1CCCCC1N.O=C([O-])C(=O)[O-].[Pt+2] (stereo not drawn) [S,S-(DACH)Pt oxalato]
- t (h), half-life of binding to plasma proteins in vitro (plasma proteins [2]; rat, plasma): 1.21 h
- Log kw [3]: 0.44 and 0.45
- Time to development of altered SNCV (female Wistar rats [4]; rat, in vivo, po): 7.0 weeks

Compound: CC(=O)[O][Pt]([NH2])([Cl])([Cl])([NH]C1CCCCC1)[O]C(C)=O [JM216, bis-acetato-ammine-dichloro-cyclohexylamine-platinum(IV)]
- t (h), half-life of binding to plasma proteins in vitro (plasma proteins [2]; [7]): 65 h
- Log kw [3]: 2.27 and 2.40
- Incidence of neurotoxicity in patients % (95% CI) (patients; ref Judson et al, 1997): 5.6 (0-27) %
- Log P [5]: -0.16
- Time to development of altered SNCV (female Wistar rats [4]; [8]): > 20.5 weeks

Compound: N.N.O=C([O-])C1(C(=O)[O-])CCC1.[Pt+2] [Carboplatin]
- t (h), half-life of binding to plasma proteins in vitro (plasma proteins [6]): 48.6 h
- Log kw [3]: 0.20
- Incidence of neurotoxicity in patients % (95% CI) (patients; ref Canetta et al, 1985): 5.8 (3.8-8.5) %
- Log P [5]: -2.3
- Log P ([5]; listed as carboplatin): -2.30
- Time to development of altered SNCV (female Wistar rats [1]; [9]): 8.0 weeks

Compound: O=C1[O][Pt-2]2([NH2+]C3CCCC[C@H]3[NH2+]2)[O]C1=O (stereo partly drawn) [Oxaliplatin, R,R-(DACH)Pt(oxalato)]
- Log kw [3]: 0.44 and 0.45
- Time to development of altered SNCV (female Wistar rats [4]; [8]): 3.0 weeks

Compound: N[C@@H]1CCCC[C@H]1N.[Cl][Pt+2]([Cl])([Cl])[Cl] (racemic) [Ormaplatin, rac-(DACH)PtCl4]
- Log kw [3]: 0.40 and 0.41
- Incidence of neurotoxicity in patients % (95% CI) (patients; ref Schilder et al, 1994, O'Rourke et al, 1998): 87 (47-100) %
- Neurotoxic potency (cumulative dose causing altered SNCV) (female Wistar rats [1]; female Wistar rats, repeated treatment twice per week at the MTD, intraperitoneal): 26.0
- Time to development of altered SNCV (female Wistar rats [1]; [9]): 6.0 weeks
